Data: patent US6500817B1, “Thiazolyl urea derivatives and their utilization as antiviral agents” (Bayer Aktiengesellschaft, priority 1999, dated 2002)

Row | Structure (SMILES) | melting point
1 | CCCN(C(=O)Nc1ccc(N2CCOCC2)cc1)c1nc(C)c(S(=O)(=O)NC)s1 | 179 °C
2 | CNS(=O)(=O)c1sc(N(CCOC)C(=O)Nc2ccc(N3CCOCC3)cc2)nc1C | 188 °C
3 | CNS(=O)(=O)c1sc(N(Cc2ccncc2)C(=O)Nc2ccc(N3CCCC3)cc2)nc1C | 208 °C
4 | Cc1nc(N(C)C(=O)Nc2ccc(N3CCCC3)cc2)sc1S(=O)(=O)NCC1CC1 | 205 °C
5 | CCc1nc(N(C)C(=O)Nc2ccc(N3CCCC3)cc2)sc1S(=O)(=O)NC | 217 °C
6 | Cc1nc(N(CCN(C)C)C(=O)Nc2ccc(-c3ccccc3)cc2)sc1S(=O)(=O)N(C)C(=O)Nc1ccc(-c2ccccc2)cc1 | 190 °C
7 | Cc1nc(N(C)C(=O)Nc2ccc(-c3cccn3C(=O)OC(C)(C)C)cc2)sc1S(=O)(=O)N(C)C | 84 °C
8 | Cc1nc(N(C)C(=O)Nc2ccc(OCC(C)(C)C)cc2)sc1S(=O)(=O)N(C)C | 158 °C
9 | Cc1nc(N(C)C(=O)Nc2ccc(-c3ccccc3)cc2)sc1S(=O)(=O)N(C)C | 228 °C
10 | CCCN(C(=O)Nc1ccc(-c2ccccc2)cc1)c1nc(C)c(S(N)(=O)=O)s1 | 144 °C
11 | CCOc1ccc(NC(=O)N(C)c2ncc(S(=O)(=O)N(C)C)s2)cc1 | 194 °C
12 | CNS(=O)(=O)c1sc(N(C)C(=O)Nc2ccc(N3CCC(NC(=O)OC(C)(C)C)C3)cc2)nc1C (stereo not drawn) | 188 to 189 °C (dec.)
13 | CCOC(=O)N1CC2CCN(c3ccc(NC(=O)N(C)c4nc(S(=O)(=O)NC5CC5)c(C)s4)cc3)C2C1 (stereo not drawn) | 140 °C
14 | CNS(=O)(=O)c1sc(N(C)C(=O)Nc2ccc(N3CC=CC3)cc2)nc1C | 208 to 209 °C
15 | Cc1nc(N(C)C(=O)Nc2ccc(N3CC=CC3)cc2)sc1S(=O)(=O)NC1CC1 | 186 to 187 °C
16 | Cc1nc(N(C)C(=O)Nc2ccc(N3CCC3)cc2)sc1S(=O)(=O)N(C)C | 193 to 195 °C
17 | Cc1nc(N(C)C(=O)Nc2ccc(N3CCCCC3)cc2)sc1S(=O)(=O)N(C)C | 185 °C
18 | CNS(=O)(=O)c1sc(N(C)C(=O)Nc2ccc(-c3ccccc3C)cc2C)nc1C | 148 °C
19 | Cc1nc(N(C)C(=O)Nc2ccc(-c3ccccc3)cc2)sc1S(=O)(=O)NCC1CC1 | 176 °C
20 | CCc1nc(N(CCCN(CC)CC)C(=O)Nc2ccc(-c3ccccc3)cc2)sc1S(N)(=O)=O | 177 °C

Row | Structure (SMILES) | melting point
21 | CCCN(C(=O)Nc1ccc(-c2ccccc2)cc1)c1nc(C)c(S(=O)(=O)NCCO)s1 | 156 °C
22 | CNS(=O)(=O)c1sc(N(CCCN(C)C)C(=O)Nc2ccc(-c3ccccc3)cc2)nc1C | 196 °C
23 | CNS(=O)(=O)c1sc(N(Cn2ccnc2)C(=O)Nc2ccc(-c3ccccc3)cc2)nc1C | 205 °C
24 | CCCOc1ccc(NC(=O)N(C)C2=CC(C)=C(S(=O)(=O)NCCOC)C2)cc1 | 97 °C
25 | CNS(=O)(=O)c1sc(N(CCCN(C)c2ccccc2)C(=O)Nc2ccc(-c3ccccc3)cc2)nc1C | 148 °C
26 | CNS(=O)(=O)c1sc(N(CCOC)C(=O)Nc2ccc(N3CCCC3)cc2)nc1C | 184 °C
27 | Cc1nc(N(C)C(=O)Nc2ccc(-c3ccccc3)cc2)sc1S(N)(=O)=O | 221 °C
28 | CCN(C(=O)Nc1ccc(N2CCOCC2)cc1)c1nc(Cl)c(S(=O)(=O)N(C)C)s1 | 190 °C
29 | CC(=O)Nc1cccc(Oc2ccc(NC(=O)N(C)c3nc(Cl)c(S(=O)(=O)N(C)C)s3)cc2)c1 | 219 °C
30 | Cc1nc(N(C)C(=O)Nc2ccc(N3CCSCC3)cc2)sc1S(=O)(=O)N(C)C | 196 °C
31 | C=C(Nc1ccc(N2CCOCC2)cc1)Nc1nc(C)c(S(=O)(=O)N(C)C)s1 | 188 °C
32 | COCCN(C)S(=O)(=O)c1sc(N(C)C(=O)Nc2ccc(N3CCOCC3)cc2)nc1C | 156 °C
33 | Cc1nc(N(C)C(=O)Nc2ccc(N3CCOCC3)cc2)sc1S(=O)(=O)N(C)CCn1ccnn1 | 172 °C
34 | CCOc1ccc(NC(=O)N(C)c2nc(C)c(S(=O)(=O)NCc3ccc4c(c3)OCO4)s2)cc1 | 178 °C
35 | CN(C(=O)Nc1ccc(N2CCOCC2)c(F)c1)c1nc(Cl)c(S(=O)(=O)N(C)C)s1 | 196 °C
36 | CCOc1ccc(NC(=O)N(Cc2ccccc2)c2nc(C)c(S(=O)(=O)NC3CC3)s2)cc1 | 178 °C
37 | CCOc1ccc(NC(=O)N(Cc2ccncc2)c2nc(C)c(S(=O)(=O)NC3CC3)s2)cc1 | 200 °C
38 | CCOc1ccc(NC(=O)Nc2nc(C)c(S(=O)(=O)NCCOC)s2)cc1 | 137 °C
39 | CCOc1ccc(NC(=O)N(C)c2nc(C)c(S(=O)(=O)NCCn3ccnn3)s2)cc1 | 154 °C
40 | CCc1nc(N(CCCO)C(=O)Nc2ccc(N3CCOCC3)cc2)sc1S(=O)(=O)NC | 169 °C

The remaining lines, values ahead:

Row | melting point | Structure (SMILES)
41 | 215 °C | CCOc1ccc(NC(=O)N(C)c2nc(Cl)c(S(=O)(=O)N(C)C)s2)cc1
42 | 154 °C | CCCN(C(=O)Nc1ccc(OCC)cc1)c1nc(C)c(S(=O)(=O)NC)s1
43 | 196 °C | CCOc1ccc(NC(=O)N(C)c2nc(C)c(S(N)(=O)=O)s2)cc1
44 | 156 °C | Cc1nc(N(C)C(=O)Nc2ccc(OCC(O)CO)cc2)sc1S(=O)(=O)N(C)C (stereo not drawn)
45 | 210 °C | CCOc1ccc(NC(=O)N(C)c2nc(CC)c(S(=O)(=O)NC)s2)cc1
46 | 150 °C | CCOc1ccc(NC(=O)N(CC2CCCO2)c2nc(C)c(S(=O)(=O)NC)s2)cc1 (stereo not drawn)
47 | 194 °C | CCOc1ccc(NC(=O)N(Cc2ccccn2)c2nc(C)c(S(=O)(=O)NC)s2)cc1
48 | 162 °C | C=CCN(C(=O)Nc1ccc(OCC)cc1)c1nc(C)c(S(=O)(=O)NC)s1
49 | 146 °C | CCOc1ccc(NC(=O)N(CCCNC(=O)OC(C)(C)C)c2nc(C)c(S(=O)(=O)NC)s2)cc1
50 | 150 °C | CCOc1ccc(NC(=O)N(CCCN)c2nc(C)c(S(=O)(=O)NC)s2)cc1.Cl
51 | 188 °C | CCOc1ccc(NC(=O)N(CCCN2CCCC2=O)c2nc(C)c(S(=O)(=O)NC)s2)cc1
52 | 161 °C | CCOc1ccc(NC(=O)N(CCCO)c2nc(C)c(S(=O)(=O)NC)s2)cc1
53 | 162 °C | CCOc1ccc(NC(=O)N(CCN(C)C)c2nc(C)c(S(N)(=O)=O)s2)cc1
54 | 193 °C | CCOc1ccc(NC(=O)N(Cc2cccnc2)c2nc(C)c(S(N)(=O)=O)s2)cc1
55 | 165 °C | CCCOc1ccc(NC(=O)N(CCN(C)C)c2nc(C)c(S(=O)(=O)NC)s2)cc1
56 | 196 °C | CNS(=O)(=O)c1sc(N(CCN(C)C)C(=O)Nc2ccc(N3CCOCC3)cc2)nc1C
57 | 185 °C | CCOc1ccc(NC(=O)N(CCCN(C)C)c2nc(C)c(S(=O)(=O)NC)s2)cc1
58 | 168 °C | CCOc1ccc(NC(=O)N(CCN(C)C)c2nc(C)c(S(=O)(=O)NC3CC3)s2)cc1
59 | 147 °C | CCCOc1ccc(NC(=O)N(C)c2nc(C)c(S(=O)(=O)N(C)C)s2)cc1
60 | 188 °C | CCOc1ccc(NC(=O)N(Cc2ccncc2)c2nc(C)c(S(=O)(=O)N(C)C)s2)cc1
61 | 184 °C | CCOc1ccc(NC(=O)N(CCNC(C)=O)c2nc(C)c(S(=O)(=O)N(C)C)s2)cc1
62 | 152 °C | CCOc1ccc(NC(=O)N(CCCCNC(=O)OC(C)(C)C)c2nc(C)c(S(=O)(=O)N(C)C)s2)cc1
63 | 130 °C | CCOc1ccc(NC(=O)N(c2nc(C)c(S(=O)(=O)N(C)C)s2)C(C)CC)cc1 (stereo not drawn)
